In experiment [1] the test system is C2C12 muscle cells. As to the kind of experiment: Quantity of mitochondria in cells by fluorescence after MitoTracker Green staining. Format: cell-based, mouse. To be noted: coumestrol-treated C2C12 muscle cells, FIG. 3. On the procedure:
(§1) C2C12 muscle cells derived from mouse (mouse myoblasts, ATCC) were differentiated for a week and then treated with […] coumestrol for 24 hours. Then, the expression of mitochondria-associated genes was confirmed at the protein level by western blotting. The tested genes were PGC1 which induces mitochondria biosynthesis and NDUFA9 and ATP5a which are proteins that constitute the mitochondrial electron transport chain.
Also, the quantity of mitochondria in cells was measured by fluorescence after staining with MitoTracker Green (Invitrogen).

Experiment [2] concerns the target T1, SIRT1 (Homo sapiens, UniProt Q96EB6).
T1 construct: Biomol
T1 sequence (Q96EB6 1-747): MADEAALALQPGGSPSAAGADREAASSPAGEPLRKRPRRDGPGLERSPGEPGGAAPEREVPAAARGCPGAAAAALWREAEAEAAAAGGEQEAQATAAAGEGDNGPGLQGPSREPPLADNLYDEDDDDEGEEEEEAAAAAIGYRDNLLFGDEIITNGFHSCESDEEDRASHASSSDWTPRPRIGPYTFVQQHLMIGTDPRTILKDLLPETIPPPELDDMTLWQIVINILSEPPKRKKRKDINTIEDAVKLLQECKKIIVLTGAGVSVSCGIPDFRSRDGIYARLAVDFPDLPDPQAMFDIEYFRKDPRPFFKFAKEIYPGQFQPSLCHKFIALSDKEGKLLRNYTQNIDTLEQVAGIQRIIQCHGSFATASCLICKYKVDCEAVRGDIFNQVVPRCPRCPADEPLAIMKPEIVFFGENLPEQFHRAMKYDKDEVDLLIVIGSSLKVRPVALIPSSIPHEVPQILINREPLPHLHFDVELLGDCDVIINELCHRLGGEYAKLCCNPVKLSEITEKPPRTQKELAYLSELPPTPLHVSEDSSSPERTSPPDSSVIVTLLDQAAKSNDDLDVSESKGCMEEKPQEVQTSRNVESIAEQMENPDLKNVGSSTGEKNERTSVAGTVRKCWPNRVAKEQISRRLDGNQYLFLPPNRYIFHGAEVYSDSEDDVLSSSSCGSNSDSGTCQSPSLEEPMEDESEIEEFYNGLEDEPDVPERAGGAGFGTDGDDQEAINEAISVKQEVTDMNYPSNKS
Briefly: SIRT1 activity assay kit (Biomol), SIRT1 activating effect. Format: biochemical. Particulars: FIG. 1. On the procedure:
It was tested whether coumestrol can activate SIRT1 using the SIRT1 activity assay kit (Biomol). Cells were treated with 10 μM coumestrol. 50 µM resveratrol (Res), which is known to activate SIRT1, was used as positive control and 1 mM nicotinamide (NAM), which is an inhibitor of SIRT1, was used as negative control.

Experiment [3] relates to C2C12 muscle cells. As to the kind of experiment: Expression of mitochondria-associated genes at the protein level by western blotting in differentiated C2C12 muscle cells. Particulars: coumestrol for 24 hours, C2C12 differentiated for a week, FIG. 2. On the set-up: dose or concentration left out as unconfirmed. It is filed as cell-based, mouse. On the procedure: as §1

Regarding `O=c1oc2cc(O)ccc2c2oc3cc(O)ccc3c12` [coumestrol, 3,9-dihydroxy-6H-benzofuro(3,2-c)(1)benzopyran-6-one], the “quantity of mitochondria in cells vs untreated group” value in experiment [1] is reported as “remarkable increase”. Also, the “SIRT1 activating effect compared with resveratrol (positive control)” value in experiment [2] (10 μM coumestrol vs 50 µM resveratrol) is given as “comparable to that of resveratrol”. Further, in experiment [2] (10 μM coumestrol), the “SIRT1 activity relative to the untreated group” value was “increased”. Further, the “expression of mitochondria-associated genes (PGC1, NDUFA9, ATP5a) at the protein level vs untreated group” value in experiment [3] is given as “remarkable increase”.

The values are drawn from US20130090377A1, “COMPOSITION COMPRISING COUMESTROL OR A BEAN EXTRACT CONTAINING COUMESTROL” (AMOREPACIFIC CORPORATION, priority 2010, published 2013).
